Measured values taken from patent publication US12486237B2, “Polymorphic form of (-)-cibenzoline succinate” (CELLTRION INC., priority 2020, dated 2025).
“Also recorded” adds a separate entry of the source.

Assays:
Type in all cases: physicochemical
[1] = Accelerated storage stability test (48-hour, accelerated aging conditions); conditions: 48-hour storage, AAC 40° C./75% RH
Protocol: For the crystalline and amorphous forms of (−)-cibenzoline succinate prepared according to Examples 1 to 4 above, a 48-hour storage stability test was performed under accelerated aging conditions (AAC; 40° C./75% RH).

[2] = Dynamic vapor sorption (DVS) analysis
Protocol: Dynamic vapor sorption was measured using a vapor sorption analyzer under the following conditions. • Manufacturer: Surface Measurement Systems Ltd, UK • Model: DVS Adventure-I system • Analysis of crystalline form of obtained solid: HT-XRPD Relative Humidity Cycle:
Relative humidity was cycled from 40% to 95% (sorption), from 95% to 0% (desorption) and back to 40% (sorption 2). In each step, the relative humidity was changed to 10% at a constant temperature of 25° C. The weight equilibrium was set to a dm/dt of 0.002%/min.
Dynamic vapor sorption data (water sorption isotherms) were measured by a vapor sorption analyzer.

[3] = Long-term storage stability at 60° C. evaluated by HT-XRPD, DSC, TGMS and UPLC
Protocol: The high-throughput XRD of the crystalline form was analyzed under the following conditions. • Manufacturer: Bruker, USA • Model: General Area Detector Diffraction System (GADDS) • Measurement temperature: 25° C. (RT) • 2θ measurement range: 1.5 to 41.5° • Exposure time: 90 seconds • Others: Measurement of intensity and geometric parameters with a V A NTEC-500 gas area detector (Bruker, USA) 9. High-Resolution X-Ray Diffraction (XRD) Analysis
Thermogravimetric analysis coupled with mass spectroscopy for the crystalline form was performed under the following conditions. • Manufacturer: Mettler-Toledo GmbH, Switzerland • Model: TGA/DSC 3+ STARe system • Temperature range: 25 to 300° C. • Temperature rise rate: 10° C./min • Mass spectrometer: mass spectrometer Omnistar GSD 301 T2 (Pfeiffer Vacuum GmbH, Germany) 11. Differential Scanning Calorimetry (DSC) Analysis
The calorimetric analysis of the crystalline form was performed by differential scanning calorimetry (DSC) under the following conditions. • Manufacturer: Metter Toredo GmbH, Switzerland • Model: heat flux DSC3+ STARe system • Temperature rise rate: 10° C./min • Temperature range: 25 to 300° C. • N2 flow rate: 50 ml/min. 12. Karl Fischer Titration Analysis
The mass of the crystalline form was measured by ultra-performance liquid chromatography-mass spectrometer (UPLC-MS) under the following conditions. • Manufacturer: Agilent, USA • Model: Agilent 1290 • Detector 1: UV detector set at 224 nm • Detector 2: MSD XT in Positive Scan Mode • Measurement temperature: 25° C. (RT) • Column: Agilent Eclipse Plus C18 HD (50×2.1 mm; 1.8 μm) • Column temperature: 35° C. • Flow cell: 10 mm path • Gradient: Mobile phase A: 10 mM Ammonium acetate/Mobile phase B: Acetonitrile • Flow: 0.8 ml/min • Sample concentration: 0.8 mg/ml • Solvent: Water: Acetonitrile (50:50 v/v) • Injection: 1 μl • Retention time: 1.54 min 15. Analysis of Particle Size Distribution (PSD)
Crystalline form 3 of (−)-cibenzoline succinate prepared according to Example 4 was stored at 60° C. for 4 weeks, and then the long-term storage stability thereof was evaluated by HT-XRPD, DSC, TGMS and UPLC analysis.

[4] = Particle size analysis by laser diffraction particle analyzer; conditions: dispersant heptane
Protocol: The particle size of the crystalline form was measured with a laser diffraction particle size analyzer under the following conditions. • Manufacturer: Malvern Instruments Limited, UK • Model: Mastersizer 2000 • Sampler: Hydro 2000 G/S Instrumental Conditions: • Particle reflection index (RI)): 1.52 • Dispersant: heptane • Absorbance: 0.1 • Refractive index of dispersant: 1.39 • Analysis model: general purpose • Sensitivity: enhanced • Absorption limit: 10-15% • Measurement time: 30 seconds (repeated three times per sample) • Agitation speed: 3500 RPM Sample Preparation:
About 150 mg of the sample was dissolved in 20 ml of 0.2% Span 85-containing heptane in a 50 ml beaker. The solution was sonicated for about 10 seconds and placed in a sampler, and when the absorption limit reached 10 to 15%, measurement was performed.
The particle size of crystalline form 3 of (−)-cibenzoline succinate prepared according to Example 4 was measured by a laser diffraction particle analyzer.

[5] = default reference value (before storage)

O=C(O)CCC(=O)O.c1ccc(C2(c3ccccc3)C[C@@H]2C2=NCCN2)cc1 [Amorphous, (−)-cibenzoline succinate]
Accelerated storage stability [1]: Unstable - presence of different

O=C(O)CCC(=O)O.c1ccc(C2(c3ccccc3)C[C@@H]2C2=NCCN2)cc1 [Crystalline form 1, (−)-cibenzoline succinate]
Accelerated storage stability [1]: Unstable - presence of different

O=C(O)CCC(=O)O.c1ccc(C2(c3ccccc3)C[C@@H]2C2=NCCN2)cc1 [Crystalline form 3, (−)-cibenzoline succinate]
water absorption rate at 80% relative humidity ([2]; 25° C., 80% relative humidity): 0.2% | water absorbed in sorption 2 ([2]; 25° C., relative humidity 0% back to 40%): absorbed almost no water | water absorption rate in the sorption cycle ([2]; 25° C., relative humidity 40% to 95%): up to 0.3% | release of absorbed water in the desorption cycle ([2]; 25° C., relative humidity 95% to 0%): completely released | crystalline form of sample obtained after DVS (HT-XRPD) ([2]; after DVS cycle): maintained in Form D | Hygroscopicity classification (European Pharmacopeia 5.0, 5.11) ([2]; based on water absorption at 80% relative humidity): non-hygroscopic; also recorded: non-hydroscopic | Chemical purity [3, 5]: 100% | DSC [3, 5]: 193.2 °C | TGA mass loss rate [3, 5]: 0.6% | Long-term storage stability (crystalline form and chemical purity) ([3]; stored at 60° C. for 4 weeks): stable without changes in the crystalline form and chemical purity | Chemical purity ([3]; stored at 60° C., week 1): 100% | DSC ([3]; stored at 60° C., week 1): 191.2 °C | TGA mass loss rate ([3]; stored at 60° C., week 1): 0.2% | Chemical purity ([3]; stored at 60° C., week 4): 100% | DSC ([3]; stored at 60° C., week 4): 191.1 °C | TGA mass loss rate ([3]; stored at 60° C., week 4): 0.6% | Accelerated storage stability [1]: Stable - presence of only | Accelerated storage stability ([1]; listed as crystalline form 3): stable | D10 [4]: 8.80 μm | D50 [4]: 30.44 μm | D90 [4]: 60.72 μm | D50 ([4]; listed as crystalline form 3): 30.44 μm

O=C(O)CCC(=O)O.c1ccc(C2(c3ccccc3)C[C@@H]2C2=NCCN2)cc1 [Crystalline form 2, (−)-cibenzoline succinate]
Accelerated storage stability [1]: Unstable - presence of different

O=C(O)CCC(=O)O.c1ccc(C2(c3ccccc3)C[C@@H]2C2=NCCN2)cc1 [Reference Example, (−)-cibenzoline succinate]
D10 [4]: 17.10 μm | D50 [4]: 127.82 μm | D90 [4]: 307.56 μm
